Measurements taken from patent publication US20100272811A1 (priority 2008, published 2010).
Read-outs that look alike come from different tables or passages of the source.

Experiments:
[1] = Pharmacokinetic profile of trospium powder formulations administered to rats via insufflation; format: in vivo, Sprague-Dawley rats; conditions: rat, intratracheal insufflation, approx. 200 μg trospium, plasma, mean ± standard error
Protocol: Male Sprague-Dawley rats (weight 400±50 grams) were administered various powder formulations of trospium by insufflation. The rats were divided into four groups of four rats as follows: • Group A—Insufflated intratracheally with Leucine/Trospium/DPPC containing approximately 200 μg Trospium • Group B—Insufflated intratracheally with Leucine/Trospium/NaSaccharin containing approximately 200 μg Trospium • Group C—Insufflated intratracheally with Leucine/Citrate/NaSaccharin/Trospium containing approximately 200 μg Trospium • Group D—Insufflated intratracheally with Leucine/Trospium containing approximately 200 μg Trospium The formulations tested are described in Table 2.
Rats were anesthetized using inhaled Isofluorane. Drug powder was then intratracheally insufflated into each rat. All animals were allowed food and water ad libitum between blood collection time points. Blood samples were collected by a lateral tail vein after anesthesia. A syringe without an anticoagulant was used for blood collection and the whole blood was transferred to tubes containing K2 EDTA (MIRCOTAINER®; MFG# BD365974). The blood samples were processed (the tubes are inverted 15-20 times and centrifuged for 2 minutes at >14,000 g's to separate plasma). The plasma samples prepared in this manner were transferred to labeled plain tubes (MICROTAINER®; MFG# BD5962) and stored frozen at <−70° C. 250 ul of whole blood was obtained for each time point. Sample collection times were pre-insufflation, 2.5, 5.0, 7.5, 10, 15, 30, 60 and 120 minutes after insufflation.
Plasma samples were analyzed for trospium using an Ionspray LC/MS/MS (Liquid Chromatography coupled with Mass Spectrometery). Briefly, 100 ul of standard (trospium standard solutions in rat plasma), control or test samples were added to the wells of a 96-well plate. The trospium standard solutions were prepared by adding 100 ul of 1 ug/ml trospium chloride (in methanol) with rat plasma to yield a nominal concentration of 4000 pg/ml. Standard solutions in rat plasma were prepared as follows:
Controls were prepared by adding 1 ug/ml trospium chloride in methanol to rat plasma to yield concentrations of 2500 pg/ml, 800 pg/ml and 200 pg/ml of internal standard solution (2.5 ng/ml clidinium bromide in water) were added to all wells except those containing blank plasma samples. 20 ul of 50 mM ammonium acetate (pH 9.0) solution and 350 ul acetonitrile were added to all wells and the plate was shaken on an orbital shaker for 1-2 minutes. The plate was centrifuged at 2000×g for 5-7 minutes. The supernatant was removed added onto an Agilent 96-well plate and concentrated to dryness using a Speed Vacuum. The dry sample were then reconstituted with 100 ul of 50:50 methanol:water and analyzed by LC/MS/MS.
Quantitation was performed using a weighted (1/×) linear regression analysis generated from standard samples.

[2] = background statement; cited from earlier work

Row | Structure (SMILES) | solubility (30% ethanol with inline heating at 55° C.) | soluble in water (water at room temperature) | AUC [1] | Cmax [1] | Tmax [1] | AUC ([1]; male, Sprague-Dawley, inhaled or intranasal, 200 ug, read-out: AUC (converted)) | Cmax ([1]; male, Sprague-Dawley, inhaled or intranasal, 200 ug, read-out: Cmax) | Tmax ([1]; male, Sprague-Dawley, inhaled or intranasal, 200 ug, read-out: Tmax (converted)) | aqueous solubility [2]
1 | O=C(OC1C[C@H]2CC[C@@H](C1)[N+]21CCCC1)C(O)(c1ccccc1)c1ccccc1.O=C1NS(=O)(=O)c2ccccc21 (stereo partly drawn) [Trospium saccharin complex] | greater than 4 mg/ml | less than 0.4 mg/ml | 1102 ± 76.9 ng·min/mL | 43.50 ± 5.32 ng/mL | 9.38 ± 1.40 min |  |  |  | 
2 | O=C(O[C@H]1C[C@H]2CC[C@@H](C1)[N+]21CCCC1)C(O)(c1ccccc1)c1ccccc1 [Trospium chloride, endo-3-[(hydroxydiphenyl-acetyl)oxy]spiro[8-azoniabicyclo[3.2.1]octane-8,-1′-pyrrolidinium]chloride, reference compound] |  |  |  |  |  | 1490 ng·min/mL | 71.2 ± 6.26 ng/mL | 6.31 min | relatively high
